This is an account of results in US20110002843A1, “METHOD OF DETECTING MYOCARDIAL DYSFUNCTION IN PATIENTS HAVING A HISTORY OF ASTHMA OR BRONCHOSPASM” (priority 2005, published 2011).

Molecules are shown by their SMILES.

For orientation: EC50 means the concentration giving half of the maximal effect.

In one series the target is T1, A1 adenosine receptor (Cavia porcellus, UniProt P47745).
T1 sequence (P47745 1-326): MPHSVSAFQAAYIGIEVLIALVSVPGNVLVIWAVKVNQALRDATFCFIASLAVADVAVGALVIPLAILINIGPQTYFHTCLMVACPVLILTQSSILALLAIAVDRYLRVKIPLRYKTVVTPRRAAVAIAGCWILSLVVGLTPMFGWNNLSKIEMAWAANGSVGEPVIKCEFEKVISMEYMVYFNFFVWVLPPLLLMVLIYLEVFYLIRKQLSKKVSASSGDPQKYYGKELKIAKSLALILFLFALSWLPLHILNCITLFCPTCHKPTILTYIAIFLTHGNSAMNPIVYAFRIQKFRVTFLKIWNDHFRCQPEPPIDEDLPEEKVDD
Further details: a Langendorff guinea pig heart preparation; from tissue; host or cells: isolated perfused guinea pig heart (Langendorff). The note with it: heart paced at 260 beats/min; data of U.S. Pat. No. 5,278,150; read-out: EC50—SQPR (A1); cited from earlier work.

For series [1], the target named is T2, A2A adenosine receptor (Cavia porcellus, UniProt P46616). Further details: a Langendorff guinea pig heart preparation; from tissue; host or cells: isolated perfused guinea pig heart (Langendorff), coronary vasculature. The note with it: heart paced at 260 beats/min; data of U.S. Pat. No. 5,278,150; read-out: EC50—CF (A2A); cited from earlier work.
The target in series [2] is T2, A2A adenosine receptor. Description: Langendorff guinea pig heart preparation, coronary vasodilation (coronary flow). The note with it: quotient EC50-SQPR / EC50-CF.
Protocol: The A1/A2A selectivity in Table 1 was calculated as the quotient of the EC50 of stimulus-QRS prolongation divided by the EC50 of coronary vasodilation.
The nature of series [3]: Dose-selection study of coronary hyperemia (CBFV by Doppler guide wire) in non-asthmatic patients at cardiac catheterization. The conditions noted are these: intracoronary bolus injections before binodenoson. The method, then: Coronary blood flow velocity reserve (CBFVR) was established by intracoronary (IC) bolus injections of adenosine just prior to administration of binodenoson to allow a direct comparison of the magnitude of responses.
Patients presenting for cardiac catheterization were screened for eligibility and provided informed consent prior to sedation. Final eligibility was determined by the investigator during diagnostic catheterization.
Following completion of the diagnostic catheterization procedure and confirmation of all eligibility criteria, the Doppler guide wire was introduced into an accessible coronary artery and manipulated until a stable signal was obtained.
Drug administration: All usual catheterization procedural medications including IC nitroglycerin, heparin, anxiolytics and analgesics, were allowed. […] Binodenoson doses were then introduced into a peripheral vein via an indwelling catheter.
Measurements: Coronary blood flow velocity (CBFV) was measured as continuous pulsatile (systolic and diastolic) velocity (cm/sec) with the Doppler guide wire introduced via a guiding catheter. HR was derived from the ECG signal. SBP and diastolic blood pressure (DBP) were recorded directly from the catheter sheath. For each IC adenosine injection, CBFVR was calculated by dividing the peak post-injection CBFV value by the respective baseline CBFV value. Each patient's maximal calculated CBFVR was used as a benchmark to which CBFV responses to binodenoson were compared. For each binodenoson dose, baseline CBFV (post-IC adenosine), peak CBFV, time following dose start time to achieve peak CBFV and percents of CBFVR (calculated as the ratio of CBFV change from baseline following binodenoson administration vs CBFVR) at each point were calculated. Rate pressure product (RPP) and coronary vascular resistance (CVR) were derived at each time point (see formulas in Table 10). […] Vital signs were measured again approximately 3 to 4 hours after dosing or prior to hospital discharge. Patients returned for a follow-up visit 2 to 4 days following catheterization that included vital signs, an abbreviated physical examination, a 12-lead ECG, blood chemistry and hematology assessments and an assessment of any late-emerging adverse events.
Adverse events were monitored throughout the study.
Statistical analyses: All pharmacodynamic and safety data were analyzed using the intent-to-treat (ITT) population, which included all patients who received any amount of study drug. A paired t test was used to assess the significance of within-treatment differences (peak vs baseline) in CBFV, vital signs and calculated CVR and RPP; repeated comparisons were corrected using the Bonferroni-Holm method. The statistical significance of differences among treatment groups was evaluated using an analysis of variance (ANOVA) model that included treatment and investigator interactions.

T2 sequence (P46616 whole entry, the tested form may be a part): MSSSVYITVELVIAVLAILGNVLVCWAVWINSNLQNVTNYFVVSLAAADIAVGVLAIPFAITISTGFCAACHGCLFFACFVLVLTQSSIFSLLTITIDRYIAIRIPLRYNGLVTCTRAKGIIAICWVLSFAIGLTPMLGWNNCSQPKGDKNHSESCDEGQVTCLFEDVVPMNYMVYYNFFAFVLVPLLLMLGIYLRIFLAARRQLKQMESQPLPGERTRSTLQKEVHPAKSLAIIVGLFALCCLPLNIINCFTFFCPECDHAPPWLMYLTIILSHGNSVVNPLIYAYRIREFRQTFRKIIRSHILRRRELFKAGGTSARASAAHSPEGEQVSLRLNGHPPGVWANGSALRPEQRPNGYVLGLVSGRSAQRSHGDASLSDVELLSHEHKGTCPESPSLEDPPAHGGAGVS

As for `Nc1nc(N/N=C/C2CC=CCC2)nc2c1ncn2[C@@H]1O[C@H](CO)[C@@H](O)[C@H]1O` (stereo in doubt) [B, 2-{2-[(Cyclohex-3-enyl)methylene]hydrazino}adenosine], the EC50 on A1 adenosine receptor is 13.8 µM.

As to `Nc1nc(N/N=C/c2ccccc2)nc2c1ncn2[C@@H]1O[C@H](CO)[C@@H](O)[C@H]1O` (stereo in doubt) [I, 2-[2-(Benzylidene) hydrazino]adenosine], the EC50 was 0.00229 µM on A2A adenosine receptor [1] and 83.2 µM on A1 adenosine receptor. Also, the “A1/A2A Selectivity” value on A2A adenosine receptor [2] is 36,300.

With `CC(C)CCC=NNc1nc(N)c2ncn([C@@H]3O[C@H](CO)[C@@H](O)[C@H]3O)c2n1` [C, 2-[2-(4-methylpentylidene)hydrazino]adenosine], the “A1/A2A Selectivity” value at A2A adenosine receptor [2] is 44,700.

Regarding `Nc1ncnc2c1ncn2[C@@H]1O[C@H](CO)[C@@H](O)[C@H]1O` [Compare A, Adenosine, reference compound], in series [3], the “effect on CBFV” value was “transient increases” and the “effects on SBP, DBP, or HR” value is recorded as “no consistent effects”.

Regarding `Nc1nc(N)c2ncn([C@@H]3O[C@H](CO)[C@@H](O)[C@H]3O)c2n1` [Compare B, 2-Amino-adenosine, reference compound], the EC50 at A2A adenosine receptor [1] is 0.22 µM. For the same molecule, the “A1/A2A Selectivity” value on A2A adenosine receptor [2] was found to be 50.

As to `NNc1nc(N)c2ncn([C@@H]3O[C@H](CO)[C@@H](O)[C@H]3O)c2n1` [Compare C, 2-Hydrazino-adenosine, reference compound], at A2A adenosine receptor [2], the “A1/A2A Selectivity” value came out at 250.

Take `CCCCC(CC)CC=NNc1nc(N)c2ncn([C@@H]3O[C@H](CO)[C@@H](O)[C@H]3O)c2n1` (some centres unmarked) [D, 2-[2-(3-ethylheptylidene)hydrazino]adenosine]: the EC50 at A1 adenosine receptor is 9.77 µM.

For `CCCCCC=NNc1nc(N)c2ncn([C@@H]3O[C@H](CO)[C@@H](O)[C@H]3O)c2n1` [E, 2-[2-(hexylidene)hydrazino]adenosine], the “A1/A2A Selectivity” value at A2A adenosine receptor [2] was 38,000.

As for `CCCC(CCC)CCC=NNc1nc(N)c2ncn([C@@H]3O[C@H](CO)[C@@H](O)[C@H]3O)c2n1` [G, 2-[2-(4-propylheptylidene)hydrazino]adenosine], the results for the EC50 at A2A adenosine receptor [1] and on A1 adenosine receptor were 0.00178 µM and 66.1 µM, respectively. Also, the “A1/A2A Selectivity” value at A2A adenosine receptor [2] is on record as 37,200.

`Nc1nc(NN=Cc2ccc(F)cc2)nc2c1ncn2[C@@H]1O[C@H](CO)[C@@H](O)[C@H]1O` [J, 2-[2-(4-Fluorobenzylidene) hydrazino]adenosine]: at A2A adenosine receptor [2], the “A1/A2A Selectivity” value is given as 5,100.

On to `Cc1ccc(C=NNc2nc(N)c3ncn(C4OC(CO)C(O)C4O)c3n2)cc1` (centres unmarked) [K, 2-[2-(4-Methylbenzylidine) hydrazino]adenosine], for which, at A1 adenosine receptor, the EC50 is 39.8 µM.

As for `Cc1cccc(C=NNc2nc(N)c3ncn(C4OC(CO)C(O)C4O)c3n2)c1` (centres unmarked) [L, 2-[2-(3-Methylbenzylidine)hydrazino]adenosine], the EC50 on A2A adenosine receptor [1] was 0.0044 µM; on A1 adenosine receptor, 17 µM. Also, the “A1/A2A Selectivity” value at A2A adenosine receptor [2] is 3,800.
